Earlier results on 2 compounds are cited in patent publication US6001882A (priority 1997, dated 1999).

The conditions of data set [1]: cited from earlier work.
The next data set concerns psoriasis. The conditions noted are these: systemic, with long wavelength ultraviolet light; cited from earlier work.

Take `Cc1cc(O)c2c(=O)c3c(O)cc(O)c4c5c(O)cc(O)c6c(=O)c7c(O)cc(C)cc7c(c65)c(c2c1)c34` [protohypericin]: the “conversion on exposure to visible light” value in data set [1] is “converted to hypericin upon exposure to visible light”. For the compound `C=Cc1c2[n-]c(c1C)/C=c1\[n-]/c(c(C)c1C=C)=C\c1[n-]c(c(CCC(=O)O)c1C)/C=c1\[n-]c(c(C)c1CCC(=O)O)=C2.[Sn+4]` [tin-protoporphyrin], in the data set with psoriasis, the amelioration of psoriasis entry is on record as “effects amelioration of psoriasis in psoriatic patients”.
